For orientation: Ki means the equilibrium dissociation constant of an inhibitor or competing ligand from its target.

This experiment deals with T1, recombinant human 5-HT5A receptor (Homo sapiens, UniProt P47898).
T1 construct: expressed in transfected cells; host or cells: Human Embryonic Kidney-EBNA (HEK-EBNA) cells, transient cDNA expression; membranes
T1 sequence (P47898 whole entry): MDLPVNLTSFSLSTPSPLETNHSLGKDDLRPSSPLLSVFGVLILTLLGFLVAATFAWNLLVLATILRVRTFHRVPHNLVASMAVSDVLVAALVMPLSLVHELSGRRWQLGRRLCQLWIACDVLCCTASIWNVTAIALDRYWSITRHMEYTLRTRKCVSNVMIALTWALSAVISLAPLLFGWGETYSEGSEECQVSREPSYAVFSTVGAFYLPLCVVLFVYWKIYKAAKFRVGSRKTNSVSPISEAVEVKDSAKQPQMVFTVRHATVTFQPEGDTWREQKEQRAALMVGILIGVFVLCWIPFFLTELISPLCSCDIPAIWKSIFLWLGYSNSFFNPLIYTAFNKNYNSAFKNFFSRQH
As to the kind of experiment: [3H]LSD radioligand binding assay. Particulars: [3H]LSD approx. 1 nM; membranes from HEK-EBNA cells transiently expressing 5-HT5A; Ki from IC50 by Cheng-Prussoff. As for the experimental part:
A [^3H]LSD radioligand binding assay was used to determine the affinity of the compounds for the recombinant human 5-HT5A receptor, in membranes from transiently (cDNA) expressed 5-HT5A receptors in Human Embryonic Kidney-EBNA (HEK-EBNA) cells. Assay buffer consisted of Tris (50 mM) buffer containing 1 mM EGTA, 10 mM MgCl2 (pH 7.4) and 10 μM pargyline. The binding assay was carried out in 96-well-plates in the presence of [^3H]LSD (approximately 1 nM), approximately 2 μg/well of membrane protein, and 0.5 mg of Ysi-poly-l-lysine SPA beads in a final volume of 200 μl of buffer. Non-specific binding was defined using methiothepin 2 μM. Compounds were tested at 10 concentrations. All assays were conducted in duplicate and repeated at least two times. Assay plates were incubated for 120 min at room temperature before centrifugation. Bound ligand was determined using a Packard Topcount scintillation counter. IC50 values were calculated using a non-linear curve fitting program and Ki values calculated using the Cheng-Prussoff equation.
On to `COc1ccccc1CNc1ccc2c(NS(=O)(=O)c3ccc(F)cc3)cccc2n1` [Example 61, 4-Fluoro-N-[2-(2-methoxy-benzylamino)-quinolin-5-yl]-benzenesulfonamide], for which the Ki was 19.2 nM.
For `Cc1ccc(CNc2ccc3c(NCc4cc[nH]n4)cccc3n2)o1` [Example 88, N2-(5-Methyl-furan-2-ylmethyl)-N5-(1H-pyrazol-3-ylmethyl)-quinoline-2,5-diamine], the Ki worked out at 32.9 nM.
As for `CC1(C)Cc2cccc(Nc3ccc4c(NS(=O)(=O)c5cc(F)cc(F)c5)cccc4n3)c2O1` [Example 141, N-[2-(2,2-Dimethyl-2,3-dihydro-benzofuran-7-ylamino)-quinolin-5-yl]-3,5-difluoro-benzenesulfonamide], the inhibition constant Ki came out at 22 nM.
With `c1cc(Nc2ccc3c(NCc4cccc5[nH]ccc45)cccc3n2)cc(C2CC2)c1` [Example 164, N2-(3-Cyclopropyl-phenyl)-N5-(1H-indol-4-ylmethyl)-quinoline-2,5-diamine], the Ki was found to be 16.6 nM.
Take `Cc1ccc(CNc2ccc3c(NS(=O)(=O)Nc4ccc(F)cc4)cccc3n2)o1` [Example 154, N-(2-{[(5-methyl-2-furyl)methyl]amino}quinolin-5-yl)-N′-(4-fluorophenyl)sulfamide]: the Ki stood at 25.5 nM.
Then `COc1ccccc1CNc1ccc2c(NCc3[nH]cnc3C)cccc2n1` [Example 96, N2-(2-Methoxy-benzyl)-N5-(5-methyl-3H-imidazol-4-ylmethyl)-quinoline-2,5-diamine], with 19.4 nM.
As for `COc1ccccc1CNc1ccc2c(NCc3nccs3)cccc2n1` [Example 110, N2-(2-Methoxy-benzyl)-N5-thiazol-2-ylmethyl-quinoline-2,5-diamine], the Ki stood at 16.8 nM.
Then `COc1ccccc1CNc1ccc2c(CCc3ccccc3)cccc2n1` [Example 4, (2-Methoxy-benzyl)-(5-phenethyl-quinolin-2-yl)-amine], with 9.51 nM; and `O=S(=O)(Nc1cccc2nc(Nc3cccc4c3OCC4)ccc12)c1cc(F)cc(F)c1` [Example 139, N-[2-(2,3-Dihydro-benzofuran-7-ylamino)-quinolin-5-yl]-3,5-difluoro-benzenesulfonamide], with 35.5 nM; and `O=S(=O)(Nc1cccc2nc(Nc3cccc(C4CC4)c3)ccc12)c1cc(F)cc(F)c1` [Example 159, N-[2-(3-Cyclopropyl-phenylamino)-quinolin-5-yl]-3,5-difluoro-benzenesulfonamide], with 28.3 nM.
On to `O=S(=O)(Nc1cccc2nc(NCCOc3ccccc3)ccc12)c1cc(F)cc(F)c1` [Example 77, 3,5-Difluoro-N-[2-(2-phenoxy-ethylamino)-quinolin-5-yl]-benzenesulfonamide], for which the Ki was determined as 19.1 nM.
In the case of `Cc1cc2cccc(Nc3ccc4c(NCc5cccc6[nH]ccc56)cccc4n3)c2o1` [Example 111, N5-(1H-Indol-4-ylmethyl)-N2-(2-methyl-benzofuran-7-yl)-quinoline-2,5-diamine], the Ki came to 10.1 nM.
Turning to `Cc1ccc(CNc2ccc3c(Nc4ccc(Cl)cc4)cccc3n2)o1` [Example 51, N5-(4-Chloro-phenyl)-N2-(5-methyl-furan-2-ylmethyl)-quinoline-2,5-diamine], the Ki was 9.09 nM.
For `COc1ccccc1CNc1cccc2nc(NCc3ccc(C)o3)ccc12` [Example 13, N5-(2-Methoxy-benzyl)-N2-(5-methyl-furan-2-ylmethyl)-quinoline-2,5-diamine], the inhibition constant (Ki) was found to be 15.3 nM.
For the compound `Cc1ccc(CNc2ccc3c(CNc4ccccn4)cccc3n2)o1` [Example 37, (5-Methyl-furan-2-ylmethyl)-[5-(pyridin-2-ylaminomethyl)-quinolin-2-yl]-amine], the Ki came out at 49.5 nM.
Consider `Cc1ccc(CNc2ccc3c(NS(=O)(=O)c4ccc(Cl)nc4)cccc3n2)o1` [Example 59, 6-Chloro-pyridine-3-sulfonic acid {2-[(5-methyl-furan-2-ylmethyl)-amino]-quinolin-5-yl}-amide], for which the inhibitory constant (Ki) worked out at 19.9 nM.
Then `COc1ccccc1CNc1ccc2c(NCc3cccnc3)cccc2n1` [Example 1, N2-(2-Methoxy-benzyl)-N5-pyridin-3-ylmethyl-quinoline-2,5-diamine], with 8.65 nM; and `Cc1cc2cccc(Nc3ccc4c(NCc5[nH]cnc5C)cccc4n3)c2o1` [Example 125, N2-(2-Methyl-benzofuran-7-yl)-N5-(5-methyl-3H-imidazol-4-ylmethyl)-quinoline-2,5-diamine], with 2.33 nM.
As for `Cc1ccc(CNc2ccc3c(NCc4cccc(S(N)(=O)=O)c4)cccc3n2)o1` [Example 35, 3-({2-[(5-Methyl-furan-2-ylmethyl)-amino]-quinolin-5-ylamino}-methyl)-benzenesulfonamide], the inhibition constant (Ki) was 17 nM.
Then `Cc1ccc(CNc2ccc3c(NS(=O)(=O)c4ccc(Cl)s4)cccc3n2)o1` [Example 58, 5-Chloro-thiophene-2-sulfonic acid {2-[(5-methyl-furan-2-ylmethyl)-amino]-quinolin-5-yl}-amide], with 7.61 nM; and `Cc1ccc(CNc2ccc3c(NS(=O)(=O)c4ccc(F)cc4)cccc3n2)o1` [Example 42, N-{2-[(5-Methyl-furan-2-ylmethyl)-amino]-quinolin-5-yl}-4-fluorobenzenesulfonamide], with 12.5 nM; and `Cc1cc2cccc(Nc3ccc4c(NCc5cnc[nH]5)cccc4n3)c2o1` [Example 131, N5-(3H-Imidazol-4-ylmethyl)-N2-(2-methyl-benzofuran-7-yl)-quinoline-2,5-diamine], with 17.4 nM.
Turning to `Cc1nc[nH]c1CNc1cccc2nc(Nc3cccc(C4CC4)c3)ccc12` [Example 166, N2-(3-Cyclopropyl-phenyl)-N5-(5-methyl-3H-imidazol-4-ylmethyl)-quinoline-2,5-diamine], the Ki was 34.2 nM.
With `Cc1ccc(CNc2ccc3c(NCc4cccnc4)cccc3n2)o1` [Example 15, N2-(5-Methyl-furan-2-ylmethyl)-N5-pyridin-3-ylmethyl-quinoline-2,5-diamine] the figure was 11.1 nM; with `Cc1nc(CNc2cccc3nc(NCc4ccc(C)o4)ccc23)c[nH]1` [Example 90, N2-(5-Methyl-furan-2-ylmethyl)-N5-(2-methyl-1H-imidazol-4-ylmethyl)-quinoline-2,5-diamine], 52.9 nM.
Turning to `CC1Cc2cccc(Nc3ccc4c(NS(=O)(=O)c5cc(F)cc(F)c5)cccc4n3)c2O1` (racemic) [Example 134, rac-3,5-Difluoro-N-[2-(2-methyl-2,3-dihydro-benzofuran-7-ylamino)-quinolin-5-yl]-benzenesulfonamide], the Ki was 21.7 nM.
Then `CC1(C)Cc2cccc(Nc3ccc4c(NCc5ccc6[nH]cnc6c5)cccc4n3)c2O1` [Example 148, N5-(1H-Benzoimidazol-5-ylmethyl)-N2-(2,2-dimethyl-2,3-dihydro-benzofuran-7-yl)-quinoline-2,5-diamine], with 3.08 nM; and `COc1ccccc1CNc1ccc2c(NCc3ccncc3)cccc2n1` [Example 9, N2-(2-Methoxy-benzyl)-N5-pyridin-4-ylmethyl-quinoline-2,5-diamine], with 34.5 nM; and `COc1ccccc1CNc1ccc2c(NCc3cnc(C)[nH]3)cccc2n1` [Example 97, N2-(2-Methoxy-benzyl)-N5-(2-methyl-3H-imidazol-4-ylmethyl)-quinoline-2,5-diamine], with 31 nM.
With `COc1ccccc1CNc1ccc2c(OCC[S+]([O-])c3ccccc3)cccc2n1` (stereo not shown) [Example 83, [5-(2-Benzenesulfinyl-ethoxy)-quinolin-2-yl]-(2-methoxy-benzyl)-amine] the figure was 95.6 nM; with `Cc1ccc(CNc2ccc3c(CNc4ccccc4)cccc3n2)o1` [Example 22, (5-Methyl-furan-2-ylmethyl)-(5-phenylaminomethyl-quinolin-2-yl)-amine], 23.5 nM; with `Cc1cc2cccc(Nc3ccc4c(NS(=O)(=O)c5ccc(F)cc5)cccc4n3)c2o1` [Example 128, 4-Fluoro-N-[2-(2-methyl-benzofuran-7-ylamino)-quinolin-5-yl]-benzenesulfonamide], 79.7 nM.
As to `CC(Nc1cccc2nc(Nc3cccc4c3OC(C)(C)C4)ccc12)c1cc(F)cc(F)c1` (racemic) [Example 151, rac-N5-[1-(3,5-Difluoro-phenyl)-ethyl]-N2-(2,2-dimethyl-2,3-dihydro-benzofuran-7-yl)-quinoline-2,5-diamine], the inhibition constant (Ki) was 4.74 nM.
With `Cc1ccc(CNc2ccc3c(NCc4ccc5[nH]cnc5c4)cccc3n2)o1` [Example 107, N5-(1H-Benzoimidazol-5-ylmethyl)-N2-(5-methyl-furan-2-ylmethyl)-quinoline-2,5-diamine] the figure was 3.92 nM; with `Cc1ccc(CNc2ccc3c(NS(=O)(=O)c4cc(F)cc(F)c4)cccc3n2)o1` [Example 60, 3,5-Difluoro-N-{2-[(5-methyl-furan-2-ylmethyl)-amino]-quinolin-5-yl}-benzenesulfonamide], 21.7 nM; with `Cc1ccc(CNc2ccc3c(Nc4ccc(Cl)nc4)cccc3n2)o1` [Example 57, N5-(6-Chloro-pyridin-3-yl)-N2-(5-methyl-furan-2-ylmethyl)-quinoline-2,5-diamine], 31.4 nM.
In the case of `CC1Cc2cccc(Nc3ccc4c(NCc5cccc6[nH]ccc56)cccc4n3)c2O1` (stereo not shown) [Example 140, N5-(1H-Indol-4-ylmethyl)-N2-(2-methyl-2,3-dihydro-benzofuran-7-yl)-quinoline-2,5-diamine], the inhibition constant Ki turned out to be 11.9 nM.

The values are drawn from patent US7825253B2, “2-aminoquinoline derivatives” (Hoffmann-La Roche Inc., priority 2006, dated 2010).
